# According to the supplement of paper PMC10307832:
# Key:
# Assay in all cases: relative viability (nuclei count vs DMSO), 5 days (fraction); higher = more cells survive
# EPLC-272H = test system: EPLC-272H
# Method in brief: (§1)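 Lung cancer cell lines, seeded in 1536-well plates, were treated the following day by pin tool with a single drug or with five library-drug doses (not always all listed) in √10 steps on top of a fixed anchor-drug dose. Cells were fixed and nuclei stained in one step after 5 days, and nuclei were counted. Relative viability is the nuclei count for treated wells divided by that for vehicle wells, reported as medians of duplicate plates.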
# NCI-H2023 = test system: NCI-H2023
# Method in brief: as §1
# SK-LU-1 = test system: SK-LU-1
# Method in brief: as §1
# NCI-H2085 = test system: NCI-H2085
# Method in brief: as §1
# PC-14 = test system: PC-14
# Method in brief: as §1
# H3255 = test system: H3255
# Method in brief: as §1
# NCI-H647 = test system: NCI-H647
# Method in brief: as §1
# NCI-H1734 = test system: NCI-H1734
# Method in brief: as §1
# SW 1573 = test system: SW 1573
# Method in brief: as §1
# NCI-H322M = test system: NCI-H322M
# Method in brief: as §1
# NCI-H661 = test system: NCI-H661
# Method in brief: as §1
# NCI-H1993 = test system: NCI-H1993
# Method in brief: as §1
# NCI-H2126 = test system: NCI-H2126
# Method in brief: as §1
# NCI-H2347 = test system: NCI-H2347
# Method in brief: as §1
# LCLC-97TM1 = test system: LCLC-97TM1
# Method in brief: as §1
# NCI-H727 = test system: NCI-H727
# Method in brief: as §1
# EMC-BAC-2 = test system: EMC-BAC-2
# Method in brief: as §1
# NCI-H1915 = test system: NCI-H1915
# Method in brief: as §1
# LXF-289 = test system: LXF-289
# Method in brief: as §1
# NCI-H2009 = test system: NCI-H2009
# Method in brief: as §1
# HOP-62 = test system: HOP-62
# Method in brief: as §1
smiles,measurement,setting,value
O=c1cc(-c2cccc3c2Sc2ccccc2S3)oc(N2CCOCC2)c1 + Nc1ncn([C@H]2C[C@H](O)[C@@H](CO)O2)c(=O)n1 [Decitabine] (partner 2 µM),relative viability,EPLC-272H; first compound 0.08 µM,0.341
same,relative viability,EPLC-272H; first compound 0.253 µM,0.409
same,relative viability,EPLC-272H; first compound 0.8 µM,0.363
same,relative viability,EPLC-272H; first compound 2.53 µM,0.343
same,relative viability,EPLC-272H; first compound 8 µM,0.366
same,relative viability,NCI-H2023; first compound 0.08 µM,0.214
same,relative viability,NCI-H2023; first compound 0.253 µM,0.276
same,relative viability,NCI-H2023; first compound 0.8 µM,0.25
same,relative viability,NCI-H2023; first compound 2.53 µM,0.245
same,relative viability,NCI-H2023; first compound 8 µM,0.229
same,relative viability,SK-LU-1; first compound 0.08 µM,0.678
same,relative viability,SK-LU-1; first compound 0.253 µM,0.813
same,relative viability,SK-LU-1; first compound 0.8 µM,0.755
same,relative viability,SK-LU-1; first compound 2.53 µM,0.643
same,relative viability,SK-LU-1; first compound 8 µM,0.648
same,relative viability,NCI-H2085; first compound 0.08 µM,0.532
same,relative viability,NCI-H2085; first compound 0.253 µM,0.578
same,relative viability,NCI-H2085; first compound 0.8 µM,0.52
same,relative viability,NCI-H2085; first compound 2.53 µM,0.519
same,relative viability,NCI-H2085; first compound 8 µM,0.537
same,relative viability,PC-14; first compound 0.08 µM,0.213
same,relative viability,PC-14; first compound 0.253 µM,0.19
same,relative viability,PC-14; first compound 0.8 µM,0.185
same,relative viability,PC-14; first compound 2.53 µM,0.165
same,relative viability,PC-14; first compound 8 µM,0.217
same,relative viability,H3255; first compound 0.08 µM,0.653
same,relative viability,H3255; first compound 0.253 µM,0.68
same,relative viability,H3255; first compound 0.8 µM,0.631
same,relative viability,H3255; first compound 2.53 µM,0.558
same,relative viability,H3255; first compound 8 µM,0.689
same,relative viability,NCI-H647; first compound 0.08 µM,0.428
same,relative viability,NCI-H647; first compound 0.253 µM,0.534
same,relative viability,NCI-H647; first compound 0.8 µM,0.414
same,relative viability,NCI-H647; first compound 2.53 µM,0.403
same,relative viability,NCI-H647; first compound 8 µM,0.45
same,relative viability,NCI-H1734; first compound 0.08 µM,0.452
same,relative viability,NCI-H1734; first compound 0.253 µM,0.574
same,relative viability,NCI-H1734; first compound 0.8 µM,0.528
same,relative viability,NCI-H1734; first compound 8 µM,0.512
same,relative viability,SW 1573; first compound 0.08 µM,0.561
same,relative viability,SW 1573; first compound 0.253 µM,0.575
same,relative viability,SW 1573; first compound 0.8 µM,0.598
same,relative viability,SW 1573; first compound 2.53 µM,0.448
same,relative viability,SW 1573; first compound 8 µM,0.596
same,relative viability,NCI-H322M; first compound 0.08 µM,0.661
same,relative viability,NCI-H322M; first compound 0.253 µM,0.73
same,relative viability,NCI-H322M; first compound 0.8 µM,0.742
same,relative viability,NCI-H322M; first compound 2.53 µM,0.634
same,relative viability,NCI-H322M; first compound 8 µM,0.749
same,relative viability,NCI-H661; first compound 0.08 µM,0.536
same,relative viability,NCI-H661; first compound 0.253 µM,0.572
same,relative viability,NCI-H661; first compound 0.8 µM,0.518
same,relative viability,NCI-H661; first compound 2.53 µM,0.551
same,relative viability,NCI-H661; first compound 8 µM,0.558
same,relative viability,NCI-H1993; first compound 0.08 µM,0.593
same,relative viability,NCI-H1993; first compound 0.253 µM,0.61
same,relative viability,NCI-H1993; first compound 0.8 µM,0.467
same,relative viability,NCI-H1993; first compound 2.53 µM,0.586
same,relative viability,NCI-H1993; first compound 8 µM,0.577
same,relative viability,NCI-H2126; first compound 0.08 µM,0.583
same,relative viability,NCI-H2126; first compound 0.253 µM,0.581
same,relative viability,NCI-H2126; first compound 0.8 µM,0.612
same,relative viability,NCI-H2126; first compound 2.53 µM,0.534
same,relative viability,NCI-H2126; first compound 8 µM,0.54
same,relative viability,NCI-H2347; first compound 0.08 µM,0.606
same,relative viability,NCI-H2347; first compound 0.253 µM,0.663
same,relative viability,NCI-H2347; first compound 0.8 µM,0.627
same,relative viability,NCI-H2347; first compound 2.53 µM,0.616
same,relative viability,NCI-H2347; first compound 8 µM,0.629
same,relative viability,LCLC-97TM1; first compound 0.08 µM,0.195
same,relative viability,LCLC-97TM1; first compound 0.253 µM,0.217
same,relative viability,LCLC-97TM1; first compound 0.8 µM,0.256
same,relative viability,LCLC-97TM1; first compound 2.53 µM,0.186
same,relative viability,LCLC-97TM1; first compound 8 µM,0.242
same,relative viability,NCI-H727; first compound 0.08 µM,0.704
same,relative viability,NCI-H727; first compound 0.253 µM,1.05
same,relative viability,NCI-H727; first compound 2.53 µM,0.773
same,relative viability,NCI-H727; first compound 8 µM,0.895
same,relative viability,EMC-BAC-2; first compound 0.08 µM,0.91
same,relative viability,EMC-BAC-2; first compound 0.253 µM,1.1
same,relative viability,EMC-BAC-2; first compound 0.8 µM,1.01
same,relative viability,EMC-BAC-2; first compound 2.53 µM,1.04
same,relative viability,EMC-BAC-2; first compound 8 µM,1.12
same,relative viability,NCI-H1915; first compound 0.08 µM,0.259
same,relative viability,NCI-H1915; first compound 0.253 µM,0.277
same,relative viability,NCI-H1915; first compound 0.8 µM,0.271
same,relative viability,NCI-H1915; first compound 2.53 µM,0.259
same,relative viability,NCI-H1915; first compound 8 µM,0.289
same,relative viability,LXF-289; first compound 0.08 µM,0.389
same,relative viability,LXF-289; first compound 0.253 µM,0.465
same,relative viability,LXF-289; first compound 0.8 µM,0.42
same,relative viability,LXF-289; first compound 2.53 µM,0.439
same,relative viability,LXF-289; first compound 8 µM,0.416
same,relative viability,NCI-H2009; first compound 0.08 µM,0.375
same,relative viability,NCI-H2009; first compound 0.253 µM,0.358
same,relative viability,NCI-H2009; first compound 0.8 µM,0.38
same,relative viability,NCI-H2009; first compound 2.53 µM,0.348
same,relative viability,NCI-H2009; first compound 8 µM,0.343
same,relative viability,HOP-62; first compound 0.08 µM,0.206
same,relative viability,HOP-62; first compound 0.253 µM,0.221
same,relative viability,HOP-62; first compound 0.8 µM,0.187
same,relative viability,HOP-62; first compound 2.53 µM,0.228
same,relative viability,HOP-62; first compound 8 µM,0.234
